This note sets out measurements from US9346815B2, “5-chloro-2-difluoromethoxyphenyl pyrazolopyrimidine compounds, compositions and methods of use thereof” (Genentech, Inc., priority 2014, dated 2016).

Molecules are shown by their SMILES. pKi: −log10 of the molar value.

Assay [1] deals with isolated recombinant JAK1 kinase domain (Homo sapiens (Human), UniProt P23458). Put plainly: JAK1 enzyme assay (Caliper LabChip, peptide phosphorylation). It is filed as biochemical. As to conditions: isolated recombinant JAK1 kinase domain, 25 μM ATP.
In assay [2] the target is isolated recombinant JAK2 kinase domain (Homo sapiens (Human), UniProt O60674). Put plainly: JAK2 enzyme assay (Caliper LabChip, peptide phosphorylation). As to conditions: 25 μM ATP. It is filed as biochemical.
Sequence of isolated recombinant JAK2 kinase domain (O60674 849-1124): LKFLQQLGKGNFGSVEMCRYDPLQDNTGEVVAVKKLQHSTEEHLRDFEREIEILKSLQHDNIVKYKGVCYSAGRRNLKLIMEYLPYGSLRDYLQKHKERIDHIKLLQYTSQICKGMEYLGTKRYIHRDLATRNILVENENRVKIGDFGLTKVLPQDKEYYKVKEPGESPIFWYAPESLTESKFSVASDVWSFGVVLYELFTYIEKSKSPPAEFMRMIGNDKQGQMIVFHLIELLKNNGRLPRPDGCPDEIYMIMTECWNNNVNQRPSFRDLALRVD

Sequence of isolated recombinant JAK1 kinase domain (P23458 875-1153): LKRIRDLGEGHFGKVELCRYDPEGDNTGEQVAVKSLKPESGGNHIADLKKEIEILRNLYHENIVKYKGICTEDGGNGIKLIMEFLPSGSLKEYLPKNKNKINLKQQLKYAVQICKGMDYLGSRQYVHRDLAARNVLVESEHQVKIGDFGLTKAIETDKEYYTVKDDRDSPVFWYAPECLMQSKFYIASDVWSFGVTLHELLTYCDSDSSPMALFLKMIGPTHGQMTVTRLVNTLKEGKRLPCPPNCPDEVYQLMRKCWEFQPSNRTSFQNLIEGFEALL

On to `CN1CC2(C1)CN(C(=O)Cn1cc(NC(=O)c3cnn4cccnc34)c(-c3cc(Cl)ccc3OC(F)F)n1)C2` [Example 214, N-[3-[5-chloro-2-(difluoromethoxy)phenyl]-1-[2-(6-methyl-2,6-diazaspiro[3.3]heptan-2-yl)-2-oxo-ethyl]pyrazol-4-yl]pyrazolo[1,5-a]pyrimidine-3-carboxamide], for which the pKi – broadly, −log10 of the Ki, conventionally taken in molar units – is 8.93 in assay [1] and 8.89 in assay [2].
The matching figures for `Nc1nn2cccnc2c1C(=O)Nc1cn(CC(=O)N2CCC(Oc3ccccc3)CC2)nc1-c1cc(Cl)ccc1OC(F)F` [Example 285, 2-amino-N-[3-[5-chloro-2-(difluoromethoxy)phenyl]-1-[2-oxo-2-(4-phenoxy-1-piperidyl)ethyl]pyrazol-4-yl]pyrazolo[1,5-a]pyrimidine-3-carboxamide]: 9.21 and 9.33.
The matching figures for `CN1[C@@H]2CC[C@H]1CN(C(=O)Cn1cc(NC(=O)c3cnn4cccnc34)c(-c3cc(Cl)ccc3OC(F)F)n1)C2` [Example 242, N-[3-[5-chloro-2-(difluoromethoxy)phenyl]-l-[2-[(1S,5R)-8-methyl-3,8-diazabicyclo[3.2.1]octan-3-yl]-2-oxo-ethyl]pyrazol-4-yl]pyrazolo[1,5-a]pyrimidine-3-carboxamide]: 9.02 and 8.99.
As to `O=C(Nc1cn(CC(=O)N2CCC(OCCO)CC2)nc1-c1cc(Cl)ccc1OC(F)F)c1cnn2cccnc12` [Example 275, N-[3-[5-chloro-2-(difluoromethoxy)phenyl]-1-[2-[4-(2-hydroxyethoxy)-1-piperidyl]-2-oxo-ethyl]pyrazol-4-yl]pyrazolo[1,5-a]pyrimidine-3-carboxamide], the pKi was 9.51 in assay [1] and 9.05 in assay [2].
`N#CC1(c2ccccc2)CCN(C(=O)Cn2cc(NC(=O)c3c(N)nn4cccnc34)c(-c3cc(Cl)ccc3OC(F)F)n2)CC1` [Example 283, 2-amino-N-[3-[5-chloro-2-(difluoromethoxy)phenyl]-1-[2-(4-cyano-4-phenyl-1-piperidyl)-2-oxo-ethyl]pyrazol-4-yl]pyrazolo[1,5-a]pyrimidine-3-carboxamide]: the pKi is 9.26 in assay [1] and 9.54 in assay [2].
The matching figures for `CS(=O)(=O)N1CCC(CN2C[C@@H]3CN(C(=O)Cn4cc(NC(=O)c5cnn6cccnc56)c(-c5cc(Cl)ccc5OC(F)F)n4)C[C@@H]3C2)CC1` [Example 34, N-[1-[2-[(3aR,6aS)-2-[(1-methylsulfonyl-4-piperidyl)methyl]-1,3,3a,4,6,6a-hexahydropyrrolo[3,4-c]pyrrol-5-yl]-2-oxo-ethyl]-3-[5-chloro-2-(difluoromethoxy)phenyl]pyrazol-4-yl]pyrazolo[1,5-a]pyrimidine-3-carboxamide]: 9.33 and 9.34.
In the case of `O=C(Nc1cn(CC(=O)N2CCC(F)(F)C2)nc1-c1cc(Cl)ccc1OC(F)F)c1cnn2cccnc12` [Example 287, N-[3-[5-chloro-2-(difluoromethoxy)phenyl]-1-[2-(3,3-difluoropyrrolidin-1-yl)-2-oxo-ethyl]pyrazol-4-yl]pyrazolo[1,5-a]pyrimidine-3-carboxamide], the pKi in assay [1] is 9.46; in assay [2], 9.19.
`CCN1CCN(C(=O)Cn2cc(NC(=O)c3c(N)nn4cccnc34)c(-c3cc(Cl)ccc3OC(F)F)n2)CC1` [Example 247, 2-amino-N-[3-[5-chloro-2-(difluoromethoxy)phenyl]-1-[2-(4-ethylpiperazin-1-yl)-2-oxo-ethyl]pyrazol-4-yl]pyrazolo[1,5-a]pyrimidine-3-carboxamide]: the pKi in assay [1] was 9.26; in assay [2] it was 9.52.
Consider `CN(C)C1CN(C(=O)Cn2cc(NC(=O)c3cnn4cccnc34)c(-c3cc(Cl)ccc3OC(F)F)n2)C1` [Example 64, N-[3-[5-chloro-2-(difluoromethoxy)phenyl]-1-[2-[3-(dimethylamino)azetidin-1-yl]-2-oxo-ethyl]pyrazol-4-yl]pyrazolo[1,5-a]pyrimidine-3-carboxamide], for which the pKi in assay [1] was 9.18; in assay [2], 9.08.
Regarding `CN(CCc1ccccc1)Cc1nc(-c2cc(Cl)ccc2OC(F)F)c(NC(=O)c2cnn3cccnc23)s1` [Example 261, N-[4-[5-chloro-2-(difluoromethoxy)phenyl]-2-[[methyl(2-phenylethyl)amino]methyl]thiazol-5-yl]pyrazolo[1,5-a]pyrimidine-3-carboxamide], the figures for the pKi in assay [1] and in assay [2] were 7.75 and 7.99, respectively.
Consider `CN(CC1(C#N)CCCCC1)C1CCN(C(=O)c2ccc(-n3cc(NC(=O)c4cnn5cccnc45)c(-c4cc(Cl)ccc4OC(F)F)n3)cc2)CC1` [Example 187, N-[3-[5-chloro-2-(difluoromethoxy)phenyl]-1-[4-[4-[(1-cyanocyclohexyl)methyl-methyl-amino]piperidine-1-carbonyl]phenyl]pyrazol-4-yl]pyrazolo[1,5-a]pyrimidine-3-carboxamide], for which the pKi was 8.15 in assay [1] and 8.04 in assay [2].
For the compound `CN1CCC2CN(C(=O)Cn3cc(NC(=O)c4cnn5cccnc45)c(-c4cc(Cl)ccc4OC(F)F)n3)CC2C1` (stereo not drawn) [Example 30, N-[3-[5-chloro-2-(difluoromethoxy)phenyl]-1-[2-(5-methyl-3,3a,4,6,7,7a-hexahydro-1H-pyrrolo[3,4-c]pyridin-2-yl)-2-oxo-ethyl]pyrazol-4-yl]pyrazolo[1,5-a]pyrimidine-3-carboxamide], the negative-log Ki (pKi) is 9.15 in assay [1] and 8.77 in assay [2].
For `CC1(O)CCN(C(=O)Cn2cc(NC(=O)c3cnn4cccnc34)c(-c3cc(Cl)ccc3OC(F)F)n2)C1` (stereo not drawn) [Example 269, N-[3-[5-chloro-2-(difluoromethoxy)phenyl]-1-[2-(3-hydroxy-3-methyl-pyrrolidin-1-yl)-2-oxo-ethyl]pyrazol-4-yl]pyrazolo[1,5-a]pyrimidine-3-carboxamide], the negative logarithm of the Ki (pKi) in assay [1] is 9.48; in assay [2], 9.08.
The matching figures for `Nc1nn2cccnc2c1C(=O)Nc1cn(CC(=O)N2CCOCC2)nc1-c1cc(Cl)ccc1OC(F)F` [Example 290, 2-amino-N-[3-[5-chloro-2-(difluoromethoxy)phenyl]-1-(2-morpholino-2-oxo-ethyl)pyrazol-4-yl]pyrazolo[1,5-a]pyrimidine-3-carboxamide]: 9.62 and 9.96.
For `CN1CCC2(CC1)CN(C(=O)Cn1cc(NC(=O)c3c(N)nn4cccnc34)c(-c3cc(Cl)ccc3OC(F)F)n1)CCO2` [Example 215, 2-amino-N-[3-[5-chloro-2-(difluoromethoxy)phenyl]-1-[2-(9-methyl-1-oxa-4,9-diazaspiro[5.5]undecan-4-yl)-2-oxo-ethyl]pyrazol-4-yl]pyrazolo[1,5-a]pyrimidine-3-carboxamide], the pKi in assay [1] was 8.88.
On to `Nc1nn2cccnc2c1C(=O)Nc1cn(CC(=O)N2CC3CNCC3C2)nc1-c1cc(Cl)ccc1OC(F)F` (stereo not drawn) [Example 10, N-[1-[2-(2,3,3a,4,6,6a-hexahydro-1H-pyrrolo[3,4-c]pyrrol-5-yl)-2-oxo-ethyl]-3-[5-chloro-2-(difluoromethoxy)phenyl]pyrazol-4-yl]-2-amino-pyrazolo[1,5-a]pyrimidine-3-carboxamide], for which the pKi was 9.19 in assay [1] and 9.49 in assay [2].
The matching figures for `CN1CCC2(CC1)CN(C(=O)Cn1cc(NC(=O)c3cnn4cccnc34)c(-c3cc(Cl)ccc3OC(F)F)n1)CCO2` [Example 213, N-[3-[5-chloro-2-(difluoromethoxy)phenyl]-1-[2-(9-methyl-1-oxa-4,9-diazaspiro[5.5]undecan-4-yl)-2-oxo-ethyl]pyrazol-4-yl]pyrazolo[1,5-a]pyrimidine-3-carboxamide]: 8.83 and 8.63.
Regarding `C[C@@H]1CN(C(=O)Cn2cc(NC(=O)c3c(N)nn4cccnc34)c(-c3cc(Cl)ccc3OC(F)F)n2)C[C@H](C)N1` [Example 251, 2-amino-N-[3-[5-chloro-2-(difluoromethoxy)phenyl]-1-[2-[(3R,5S)-3,5-dimethylpiperazin-1-yl]-2-oxo-ethyl]pyrazol-4-yl]pyrazolo[1,5-a]pyrimidine-3-carboxamide], the pKi in assay [1] was 9.08.
`O=C(Nc1sc(N2CCN(CCc3ccccc3)CC2)nc1-c1cc(Cl)ccc1OC(F)F)c1cnn2cccnc12` [Example 206, N-[4-[5-chloro-2-(difluoromethoxy)phenyl]-2-[4-(2-phenylethyl)piperazin-1-yl]thiazol-5-yl]pyrazolo[1,5-a]pyrimidine-3-carboxamide]: the pKi in assay [1] was 7.85; in assay [2] it was 8.06.
The matching figures for `Nc1nn2cccnc2c1C(=O)Nc1cn(CC(=O)N2CCC(O)(Cc3ccccc3)CC2)nc1-c1cc(Cl)ccc1OC(F)F` [Example 279, 2-amino-N-[1-[2-(4-benzyl-4-hydroxy-1-piperidyl)-2-oxo-ethyl]-3-[5-chloro-2-(difluoromethoxy)phenyl]pyrazol-4-yl]pyrazolo[1,5-a]pyrimidine-3-carboxamide]: 9.41 and 9.66.
The matching figures for `CS(=O)(=O)CCN1CCN(C(=O)Cn2cc(NC(=O)c3cnn4cccnc34)c(-c3cc(Cl)ccc3OC(F)F)n2)CC1` [Example 232, N-[3-[5-chloro-2-(difluoromethoxy)phenyl]-1-[2-[4-(2-methylsulfonylethyl)piperazin-1-yl]-2-oxo-ethyl]pyrazol-4-yl]pyrazolo[1,5-a]pyrimidine-3-carboxamide]: 9.13 and 8.84.
Regarding `CN(C)C1CN(C(=O)Cn2cc(NC(=O)c3c(N)nn4cccnc34)c(-c3cc(Cl)ccc3OC(F)F)n2)C1` [Example 138, 2-amino-N-[3-[5-chloro-2-(difluoromethoxy)phenyl]-1-[2-[3-(dimethylamino)azetidin-1-yl]-2-oxo-ethyl]pyrazol-4-yl]pyrazolo[1,5-a]pyrimidine-3-carboxamide], the pKi in assay [1] was 9.28.
`Nc1nn2cccnc2c1C(=O)Nc1cn(CC(=O)N2CC[C@H](O)C2)nc1-c1cc(Cl)ccc1OC(F)F` [Example 270, 2-amino-N-[3-[5-chloro-2-(difluoromethoxy)phenyl]-1-[2-[(3S)-3-hydroxypyrrolidin-1-yl]-2-oxo-ethyl]pyrazol-4-yl]pyrazolo[1,5-a]pyrimidine-3-carboxamide]: in assay [2], the pKi is 9.70.
